Cc1cc(C)c(C(=O)P(=O)(c2ccccc2)c2ccccc2)c(C)c1
solubility (mole fraction)
Details	in acetone	in acetonitrile	in ethanol	in ethyl acetate	in isobutanol	in isopropanol	in methanol	in methyl acetate	in n-butanol	in n-propanol
273.15 K	0.0685	0.0242	0.0761	0.043	0.0761	0.0262	0.11	0.0504	0.0795	0.0827
278.15 K	0.0844	0.0312	0.0895	0.0529	0.0882	0.0366	0.125	0.0616	0.092	0.0983
283.15 K	0.101	0.0482	0.107	0.0621	0.109	0.0544	0.145	0.0767	0.116	0.118
288.15 K	0.12	0.0687	0.13	0.0819	0.133	0.0755	0.172	0.0963	0.139	0.139
293.15 K	0.143	0.101	0.154	0.102	0.159	0.11	0.195	0.12	0.162	0.168
298.15 K	0.169	0.144	0.184	0.126	0.187	0.158	0.233	0.149	0.2	0.196
303.15 K	0.197	0.197	0.218	0.16	0.22	0.21	0.272	0.186	0.236	0.226
308.15 K	0.232	0.271	0.266	0.194	0.256	0.276	0.298	0.229	0.271	0.262
